Assay results reported in patent US20140256664A1, “COMPOSITIONS AND METHODS FOR A MYCOBACTERIUM TUBERCULOSIS DRUG SUSCEPTIBILITY TEST” (priority 2011, published 2014).
“And” between values parts separate entries of the source, which are not always exact repeats. Equal entries are not always repeated. Structures can show the parent of a compound that is named as a salt. Where two headings read alike, the source gives them in different places.

Tests used:
Assay type in all cases: cell-based, Mycobacterium tuberculosis
M. tuberculosis isolates [1] = tested on: M. tuberculosis isolates
[2] = tested on: 33 isolates of M. tuberculosis
M. tuberculosis isolates [3] = tested on: M. tuberculosis isolates; remark: listed apart in the source
[4] = tested on: clinical MDR strain (INH, RIF, EMB, STR resistant)

Molecule | D29 phage assay Resistant (n isolates) [2] | D29 phage assay susceptible (n isolates) [2] | ΔCt of D29 phage assay resistant isolates [2] | Agar proportion Resistant (n isolates) (M. tuberculosis isolates [3]) | Agar proportion susceptible (n isolates) (M. tuberculosis isolates [3]) | number of phage / real-time PCR Ct value after drug pre-treatment [4] | other results
NCC[C@H](O)C(=O)N[C@@H]1C[C@H](N)[C@@H](O[C@H]2O[C@H](CN)[C@@H](O)[C@H](O)[C@H]2O)[C@H](O)[C@H]1O[C@H]1O[C@H](CO)[C@@H](O)[C@H](N)[C@H]1O [Amikacin, amikacin] | 1(−2.9) and 1(2.4) | 0 | 1(−2.9) and 1(2.4) | 1(16) and 1(8) | 0 |  | MIC of agar proportion resistant isolates (M. tuberculosis isolates [1]): 1(16) μg/ml and 1(8) μg/ml; D29 phage assay Resistant (n isolates) ([2]; listed as AMK): 0; Agar proportion Resistant (n isolates) (M. tuberculosis isolates [3]; listed as AMK): 0
CC[C@@H](CO)NCCN[C@@H](CC)CO [Ethambutol, ethambutol hydrochloride] |  |  |  |  |  |  | D29 phage assay Resistant (n isolates) ([2]; listed as EMB, hydrochloride): 0; Agar proportion Resistant (n isolates) (M. tuberculosis isolates [3]; listed as EMB, hydrochloride): 0
NNC(=O)c1ccncc1 [Isoniazid, isoniazid] |  | 0 |  |  | 0 | the phage number increased/Ct value decreased | D29 phage assay Resistant (n isolates) ([2]; listed as INH): 1 and 2
CO[C@H]1/C=C/O[C@@]2(C)Oc3c(C)c(O)c4c(O)c(c(/C=N/N5CCN(C)CC5)c(O)c4c3C2=O)NC(=O)/C(C)=C\C=C\[C@H](C)[C@H](O)[C@@H](C)[C@@H](O)[C@@H](C)[C@H](OC(C)=O)[C@@H]1C [Rifampin, rifampin] |  | 0 |  |  | 0 | the phage number increased/Ct value decreased | ΔCtRIF (Ct control−Ct drug) ([4]; […], drug, Tb inoculum and phage added at once, 24 h): −1
capreomycin sulfate | 1(−5.4) and 1(−3.3) | 0 | 1(−5.4) and 1(−3.3) | 1(ND) | 0 |  | D29 phage assay Resistant (n isolates) ([2]; listed as CAP): 1; ΔCt of D29 phage assay resistant isolates ([2]; listed as CAP): −5.4; Agar proportion Resistant (n isolates) (M. tuberculosis isolates [3]; listed as CAP): 0
